Values quoted from earlier work as cited in patent publication US11122832B2, “Methods and compositions to improve weight loss and cardiometabolic health beyond diet and excercise” (Nature's Sunshine Products, Inc., priority 2016, dated 2021).
Where two headings read alike, the source gives them in different places.

How the values were obtained:
[1] = tested on: plasma concentration of NOx; conditions: 6 g, over 120 minutes, healthy individuals with normal plasma ADMA
[2] = not given; remark: listed apart in the source

Compound: N=C(N)NCCC[C@H](N)C(=O)O [L-arginine]
- plasma concentration of NOx after acute supplementation [1]: does not increase

Compound: C[C@H]1CNCCc2ccc(Cl)cc21 [Lorcaserin]
- Responders (5% weight loss) (Evaluation 12 weeks, BID 10 mg, placebo 12%): 36%
- ≥10% weight loss responders (Period 56 weeks, placebo 9%): 22%
- ≥5% weight loss responders (Period 56 weeks, placebo 23%): 47%

Compound: O=NO [NO2, nitrite]
- filtered amount reabsorbed in the renal tubules ([2]; estimated): 96%

Compound: O=[N+]([O-])O [NO3, nitrate]
- bioavailability of dietary NO3 ([2]; dietary (oral)): 100%
- clearance from blood to urine ([2]; in adults): approximately 20 mL/min
- time to peak plasma concentration ([2]; orally consumed): approximately 1 hour
- half-life of plasma NO3 ([2]; plasma): 5 to 8 h

Compound: [N]=O [NO, Nitric oxide]
- half-life of NO once produced through NOS ([2]; in vivo): approximately 1 second

Compound: CCCCCCCCCCC[C@@H](C[C@@H]1OC(=O)[C@H]1CCCCCC)OC(=O)[C@H](CC(C)C)NC=O [Orlistat]
- ≥5% weight loss responders (Period 24 weeks): 42%
- ≥10% weight loss responders (Period 24 weeks): 15%
- ≥5% weight loss responders (Period 24 weeks, listed as orlistat): 42%
